Results taken from PMC8518382, “Identification of a Bromodomain‐like Region in 15‐Lipoxygenase‐1 Explains Its Nuclear Localization” (Angewandte Chemie (International Ed. in English), 2021).

Tests used:
5-LOX = biological target: T1, 5-LOX (Homo sapiens, UniProt P09917); assay: ABP-based ELISA assay with A549 cell lysate, 5-LOX; assay type: biochemical
T1 construct: the endogenous LOXs were captured on an anti‐LOX antibody precoated 96‐well plate; endogenous in cells; host or cells: A549 cell lysate
T1 sequence (P09917 1-674): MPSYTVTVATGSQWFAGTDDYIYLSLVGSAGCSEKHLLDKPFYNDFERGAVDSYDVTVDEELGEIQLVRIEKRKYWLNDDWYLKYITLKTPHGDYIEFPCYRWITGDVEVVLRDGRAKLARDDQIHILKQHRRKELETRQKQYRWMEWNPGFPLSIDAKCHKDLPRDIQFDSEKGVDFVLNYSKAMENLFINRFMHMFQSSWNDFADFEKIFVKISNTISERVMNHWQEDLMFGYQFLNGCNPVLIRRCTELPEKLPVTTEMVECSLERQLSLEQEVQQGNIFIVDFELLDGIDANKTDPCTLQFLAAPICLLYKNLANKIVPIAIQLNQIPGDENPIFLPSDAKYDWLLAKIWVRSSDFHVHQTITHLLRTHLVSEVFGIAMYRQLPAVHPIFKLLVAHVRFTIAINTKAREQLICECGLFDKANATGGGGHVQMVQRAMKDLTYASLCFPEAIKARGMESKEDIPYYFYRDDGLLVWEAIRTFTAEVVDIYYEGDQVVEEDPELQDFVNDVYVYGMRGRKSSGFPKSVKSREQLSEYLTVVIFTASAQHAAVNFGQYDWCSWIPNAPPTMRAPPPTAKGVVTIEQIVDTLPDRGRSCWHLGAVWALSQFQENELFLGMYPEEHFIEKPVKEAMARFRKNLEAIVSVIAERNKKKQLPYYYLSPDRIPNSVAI
Description: (§1) A549 cell lysate was treated with a serial dilution of the respective inhibitor. Subsequently, samples were labeled by treatment with 1 μM of Labelox B for 1 min. […] Data are mean±s.d., n≥3 independent experiments. […]
(§2) 1.6. Immunoblotting Analysis […]
(§3) 1.7. ABPP-based LOX inhibitor specificity validation
(§4) A549 cells were lysed by RIPA buffer supplemented with 1x PIC. After sonication and centrifugation, the supernatant was collected, and the protein concentration was determined by a Pierce BCA Protein Assay Kit (Thermo Fisher Scientific, USA). The lysates were then diluted with PBS to 300 ng/µl and stored in -20°C. To label endogenous LOXs with Labelox B under the competition condition, 180 µl diluted lysates were incubated with 200 µl different LOX inhibitor solution (in PBS) with desired concentrations for 18 min to inhibit LOXs activity. Later, 20 µl of a 20 µM Labelox B (in PBS) was added and incubated shortly for 2 min, followed by adding 50 µl of a 0.5 M EDTA to stop the labeling reaction. The reaction mixture was 450 µl in total. Inhibitors and Labelox B were absent in positive and […]
(§5) negative control, respectively. To detect the competition labeling of Labelox B among different LOXs, a high-binding 96-well plate (Greiner, #M4561) was coated with 5-LOX (#ab169755, Abcam), 12-LOX […]
(§6) (1:500 dilution in PBS) for overnight at 4°C. After washing triply with 0.05%PBST, the plate was blocked with 2% (w/v) BSA in PBST. Subsequently, 100 µl of each reaction mixture was added to the LOX-antibody-coated wells. There are four LOX antibodies used for coating. Therefore, in total, 400 µl mixture is needed for each reaction. After one hour of incubation, LOXs were pulled down by antibodies accordingly. Next, 100 µl of HRP-conjugated streptavidin (1:2000 dilution in PBS, Thermo Fisher Scientific, USA) was added to each well to detect the D04 labeled LOXs among precipitated LOXs. After washing with PBST, 100 µl of mixed HRP substrate reagent (R&D Systems, Minneapolis, USA) was added, and the colorizing reaction was stopped by adding 100 µl of 1M sulfuric acid. The absorbance at […]

12-LOX = biological target: T2, 12-LOX (Homo sapiens, UniProt P18054); assay: ABP-based ELISA assay with A549 cell lysate, 12-LOX; assay type: biochemical
T2 construct: the endogenous LOXs were captured on an anti‐LOX antibody precoated 96‐well plate; endogenous in cells; host or cells: A549 cell lysate
T2 sequence (P18054 1-663): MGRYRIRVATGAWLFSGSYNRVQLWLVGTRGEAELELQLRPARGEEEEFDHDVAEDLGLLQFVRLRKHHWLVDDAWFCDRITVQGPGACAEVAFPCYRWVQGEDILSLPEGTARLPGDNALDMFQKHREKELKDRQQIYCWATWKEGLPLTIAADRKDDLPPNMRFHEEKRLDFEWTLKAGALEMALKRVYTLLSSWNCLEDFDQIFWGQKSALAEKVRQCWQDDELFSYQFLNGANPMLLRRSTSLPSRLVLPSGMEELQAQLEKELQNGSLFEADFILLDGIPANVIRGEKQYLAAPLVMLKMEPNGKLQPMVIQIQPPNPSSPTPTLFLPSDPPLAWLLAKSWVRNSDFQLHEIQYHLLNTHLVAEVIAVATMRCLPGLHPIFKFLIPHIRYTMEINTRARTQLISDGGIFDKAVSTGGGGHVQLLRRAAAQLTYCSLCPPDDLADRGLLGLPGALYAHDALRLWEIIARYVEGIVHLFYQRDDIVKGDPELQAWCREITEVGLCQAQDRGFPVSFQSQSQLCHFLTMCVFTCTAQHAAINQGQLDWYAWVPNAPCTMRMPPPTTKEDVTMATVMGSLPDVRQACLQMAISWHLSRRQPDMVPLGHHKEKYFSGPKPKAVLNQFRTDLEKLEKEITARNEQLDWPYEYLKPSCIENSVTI
Description: as §1, §2, §3, §4, §5, §6

15-LOX-1 = biological target: T3, 15-LOX-1 (Homo sapiens, UniProt P16050); assay: ABP-based ELISA assay with A549 cell lysate, 15-LOX-1; assay type: biochemical; design: the endogenous LOXs were captured on an anti‐LOX antibody precoated 96‐well plate; endogenous in cells; host or cells: A549 cell lysate
T3 sequence (P16050 1-662): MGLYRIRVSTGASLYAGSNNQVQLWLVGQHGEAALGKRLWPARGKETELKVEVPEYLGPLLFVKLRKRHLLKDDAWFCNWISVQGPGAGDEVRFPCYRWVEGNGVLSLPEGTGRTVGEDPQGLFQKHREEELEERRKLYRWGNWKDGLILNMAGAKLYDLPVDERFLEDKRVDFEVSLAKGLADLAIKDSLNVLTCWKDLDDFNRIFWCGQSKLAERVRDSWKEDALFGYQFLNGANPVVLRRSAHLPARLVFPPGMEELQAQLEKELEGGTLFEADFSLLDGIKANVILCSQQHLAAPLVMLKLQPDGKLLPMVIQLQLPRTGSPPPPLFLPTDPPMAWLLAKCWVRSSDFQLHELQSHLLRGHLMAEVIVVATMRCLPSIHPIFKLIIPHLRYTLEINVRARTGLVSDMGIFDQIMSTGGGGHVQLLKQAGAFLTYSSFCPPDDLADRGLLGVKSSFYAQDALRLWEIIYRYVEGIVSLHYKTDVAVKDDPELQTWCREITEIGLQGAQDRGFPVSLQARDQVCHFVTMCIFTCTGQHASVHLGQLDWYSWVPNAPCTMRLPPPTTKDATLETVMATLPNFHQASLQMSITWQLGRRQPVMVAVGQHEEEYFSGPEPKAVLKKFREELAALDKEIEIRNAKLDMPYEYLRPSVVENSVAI
Description: as §1, §2, §3, §4, §5, §6

H3K4Ac peptide = assay: ELISA; ELISA formatted binding study between histone H3 peptides and 15‐LOX‐1; concentrations up to 20 μM; Hill‐slopes equal 1; not told which partner was immobilised
H3K56Ac peptide = assay: as above

| Kd (H3K4Ac peptide) | Kd (H3K56Ac peptide) | Compound | HillSlope Value (5-LOX) | HillSlope Value (12-LOX) | IC50 (12-LOX; 1 μM Labelox B) | Effect on ABP labeling (15-LOX-1) |
| --- | --- | --- | --- | --- | --- | --- |
|  |  | CC(c1cc2ccccc2s1)N(O)C(N)=O (stereo not drawn) [Zileuton] | -0.48 | -0.47 | 554 µM | little or no effect |
| > 20 µM | 1.65 µM | recombinant 15‐LOX‐1 (from UniProt P16050 1-662) (enzyme) |  |  |  |  |
